Assay results reported in US10131692B2, “Vasopressin-2 receptor agonists” (Ferring B.V., priority 2013, dated 2018).

How the values were obtained:
[1] = in vivo; cited from earlier work
[2] = target: human V2 receptor (h V2R) (Homo sapiens (Human), UniProt P30518); assay: hV2 receptor agonist transcriptional reporter gene (luciferase) assay; assay type: cell-based; conditions: HEK-293 cells transiently transfected with hV2 receptor, dDAVP internal control

% Efficacy hV2-R [2] | Substance | route of clearance from the body [1]
 | [1-deamino, 8-D-arginine]-vasopressin [Compound 42] | cleared from the body primarily by the kidneys
89% | [Val4]dDAVP [Compound 43] | 
